This note sets out measurements from US7968599B2, “Fast release solid formulation, preparation and use thereof” (Intervet International B.V., priority 2007, dated 2011).

The nature of the data set: Dissolution / solubility rate profile, USP apparatus 2 with paddle agitation. The following applies: Milli-Q water 25° C., paddle 50 rpm, final 0.1 mg/mL florfenicol. Format: physicochemical. The procedure:
To determine the solubility profile of different formulations, dissolution was performed using USP apparatus 2 with paddle agitation at 50 rpm. The dissolution medium was Milli-Q water maintained at a temperature of 25° C. The formulations were added directly to the water in the correct amount to achieve a final concentration of 0.1 mg/mL of florfenicol. Aliquots of the resulting solution were withdrawn and analyzed using either UV-VIS spectrophotometry or HPLC, the latter to exclude excipient contribution or degradation of florfenicol. For HPLC analysis, an organic/aqueous mobile phase was used for the separation on a C18, reverse phase column. Detection was performed by UV absorption spectrometry. The percent dissolved was calculated versus an external reference standard prepared at the nominal concentration of the analyte.

Regarding `CS(=O)(=O)c1ccc([C@@H](O)[C@@H](CF)NC(=O)C(Cl)Cl)cc1` (relative stereo) [florfenicol, [R-(R*,S*)]-2,2-Dichloro-N-[1-(fluoromethyl)-2-hydroxy-2-[4-(methylsulfonyl)phenyl]-ethyl]acetamide], the “percent florfenicol dissolved within 15 minutes” value (15 minutes) is reported as “approximately 25%”. Also, under “60 minutes”, the “percent florfenicol dissolved within 60 minutes” value is “approximately 43%”.
